Measurements: US20190223483A1, “SENSORY MODIFIER COMPOUNDS” (CARGILL, INCORPORATED, priority 2017, published 2019)
Where “and” joins values, the source holds several entries; their conditions need not be identical. Equal values may be shown once.

Key:
[1] = Roundtable assessment of bitterness (scale 0 to 6); type: in vivo; set-up: key: 0 = none; 1 = trace/faint; 2 = slight; 3 = moderate; 4 = definite; 5 = strong; 6 = extreme
Method: For other sweetness attributes, the solutions were tested by a panel of at least four individuals that are highly-trained in tasting steviol glycoside solutions. The highly-trained panelists used a roundtable methodology to assess each sweetness attribute. To test each solution, the highly-trained panelists dispensed approximately 2 mL of each solution into their own mouths by transfer pipet, dispersed the solution by moving their tongues, and recorded a value for the particular sweetness attribute being tested. Between tasting solutions, the panelists were able to cleanse their palates with water. For each sweetness attribute, the panelist agreed on a descriptive scale with relative intensities assigned for each sweetness attribute and then recorded the values for each sweetness attribute against this. For example, this roundtable assessment of sweetness linger assigned a scale of 0 to 6 with a score of 0 indicating no sweetness linger and a score of 6 indicating extreme sweetness linger. Roundtable assessment of sweetness linger assigned a scale of 0 to 6 with a score of 0 indicating no sweetness linger and a score of 6 indicating extreme sweetness linger (0=none, 1=trace, 2=slight, 3=moderate, 4=definite, 5=strong, 6=extreme). Roundtable assessment of rounded assigned a scale of 0 to 3 with a score of 0 indicating spikey and a score of 3 indicating desirable rounded (0=none, 1=mostly spikey, some rounded, 2=mostly rounded, some spikey, 3=rounded). Roundtable assessment of mouthfeel assigned a scale of 0 to 2 with a score of 0 indicating water and a score of 2 indicating syrupy (0=water, 1=sucrosey, 2=syrupy). Roundtable assessment of bitterness assigned a scale of 0 to 6 with a score of 0 indicating no bitterness and a score of 6 indicating extreme sweetness linger (0=none, 1=trace, 2=slight, 3=moderate, 4=definite, 5=strong, 6=extreme). Roundtable assessment of off tastes assigned a scale of 0 to 6 with a score of 0 indicating no bitterness and a score of 6 indicating extreme off tastes (0=none, 1=trace, 2=slight, 3=moderate, 4=definite, 5=strong, 6=extreme).
A series of assays were carried out to characterize bitterness (0=none, 1=trace/faint, 2=slight, 3=moderate, 4=definite, 5=strong, 6=extreme) of steviol glycoside compositions with sensory modifier compound using the roundtable methodology described in Example 1. […] Solutions of steviol glycosides and sensory modifier compound were prepared at increasing ratios of sensory modifier to steviol glycoside by weight. The steviol glycosides were RebA (4 glycoside groups), RebD (5 glycoside groups), RebM (6 glycoside groups), and OPS1-5(7 glycoside groups) and the sensory modifier compound was monocaffeoylquinic and dicaffeoylquinic acids prepared from yerba mate. The concentration of steviol glycosides was 700 ppm in each solution. The solutions were tested for bitterness.

[2] = Sweetness intensity (SEV) by trained panel against 1%-14% sucrose standards; type: in vivo; conditions: for sweetness intensity plateau (SEV): Reb M alone, at about 800 ppm; for sweetness intensity (SEV): about 1400 ppm Reb M with about 1400 ppm sensory modifier
Method: In some aspects, the amount of sensory modifier compound effective to increase sweetness intensity can be determined by panel testing with trained panelists. For example, […] can be determined by the following test: Solutions were prepared by dissolving steviol glycosides and sensory modifier compounds into reverse osmosis water at the indicated concentrations and/or ratios. Solutions were tested by a panel of at least four individuals that are highly-trained in tasting steviol glycoside solutions. The highly-trained panelists were trained against a standard range of 1%, 2%, 3%, 4%, 5%, 6%, 7%, 8%, 9%, 10%, 11%, 12%, 13%, and 14% sucrose solutions corresponding to 1, 2, 3, 4, 5, 6, 7, 8, 9, 10, 11, 12, 13, and 14 SEV. To test each solution, the highly-trained panelists dispensed approximately 2 mL of each solution into their own mouths by transfer pipet, dispersed the solution by moving their tongues, and recorded an SEV value for each solution based on comparison to the 1%, 2%, 3%, 4%, 5%, 6%, 7%, 8%, 9%, 10%, 11%, 12%, 13%, and 14% sucrose solutions. Between tasting solutions, the panelists were able to cleanse their palates with water. […] For sweetness intensity, the panelists focused on, and only recorded, the sweetness intensity in SEV that they tasted while disregarding other attributes of the solution. At the highest concentrations of steviol glycoside and sensory modifier compound, the panelists found other attributes to be highly noticeable, but recorded the isolated sweetness intensity for each solution despite these other attributes. Exemplary tests are described below in Example 1.
All solutions were prepared by dissolving steviol glycosides and sensory modifier compounds into reverse osmosis water at the indicated concentrations and/or ratios.
For sweetness intensity, the solutions were tested by a panel of at least four individuals that are highly-trained in tasting steviol glycoside solutions. The highly-trained panelists were trained against a standard range of 1%, 2%, 3%, 4%, 5%, 6%, 7%, 8%, 9%, 10%, 11%, 12%, 13%, and 14% sucrose solutions corresponding to 1, 2, 3, 4, 5, 6, 7, 8, 9, 10, 11, 12, 13, and 14 SEV. To test each solution, the highly-trained panelists dispensed approximately 2 mL of each solution into their own mouths by transfer pipet, dispersed the solution by moving their tongues, and recorded an SEV value for each solution based on comparison to the 1%, 2%, 3%, 4%, 5%, 6%, 7%, 8%, 9%, 10%, 11%, 12%, 13%, and 14% sucrose solutions. Between tasting solutions, the panelists were able to cleanse their palates with water. […] For this example, the panelists focused on and only recorded the sweetness intensity in SEV that they tasted while disregarding other attributes of the solution. At the highest concentrations of steviol glycoside and sensory modifier compound, the panelists found other attributes to be highly noticeable, but recorded the isolated sweetness intensity for each solution despite these other attributes.

[3] = steviol glycoside 700 ppm + yerba mate mono/dicaffeoylquinic acids 630 ppm
[4] = steviol glycoside 700 ppm + yerba mate mono/dicaffeoylquinic acids 946 ppm
[5] = steviol glycoside 700 ppm + yerba mate mono/dicaffeoylquinic acids […]
[6] = steviol glycoside 700 ppm, sensory modifier 0 ppm
[7] = steviol glycoside 700 ppm + yerba mate mono/dicaffeoylquinic acids 270 ppm
[8] = steviol glycoside 700 ppm + yerba mate mono/dicaffeoylquinic acids 540 ppm
[9] = steviol glycoside 700 ppm + yerba mate mono/dicaffeoylquinic acids 810 ppm
[10] = RebM 700 ppm + cichoric acid (tartaric backbone) 772 ppm
[11] = RebM 700 ppm + cichoric acid (tartaric backbone) […]
[12] = RebM 700 ppm + rosmarinic acid 195 ppm
[13] = RebM 700 ppm + rosmarinic acid 391 ppm
[14] = steviol glycoside 700 ppm + yerba mate mono/dicaffeoylquinic acids 236 ppm
[15] = steviol glycoside 700 ppm + yerba mate mono/dicaffeoylquinic acids 472 ppm
[16] = steviol glycoside 700 ppm + yerba mate mono/dicaffeoylquinic acids 708 ppm

**Q.** Which bitterness score ([1]; RebA 700 ppm, higher concentrations of sensory modifier) does the source give for C=C1C[C@@]23CC[C@H]4[C@@](C)(CCC[C@@]4(C)C(=O)O[C@@H]4O[C@H](CO)[C@@H](O)[C@H](O)[C@H]4O)[C@@H]2CC[C@]1(O[C@@H]1O[C@H](CO)[C@@H](O)[C@H](O[C@@H]2O[C@H](CO)[C@@H](O)[C@H](O)[C@H]2O)[C@H]1O[C@@H]1O[C@H](CO)[C@@H](O)[C@H](O)[C@H]1O)C3 [RebA, Rebaudioside A] here?
**A.** 3

**Q.** And the Bitterness [1, 3]?
**A.** 3

**Q.** And the Bitterness [1, 4]?
**A.** 3

**Q.** What about the Bitterness [1, 5] of the same compound?
**A.** 5

**Q.** And the Bitterness [1, 6]?
**A.** 6

**Q.** And the SEV [2, 3]?
**A.** 7

**Q.** And the SEV [2, 4]?
**A.** 7

**Q.** What about the SEV [2, 5] of the same compound?
**A.** 7

**Q.** And the SEV [2, 6]?
**A.** 7

**Q.** What does the source list for C=C1C[C@@]23CC[C@H]4[C@@](C)(CCC[C@@]4(C)C(=O)O[C@@H]4O[C@H](CO)[C@@H](O)[C@H](O)[C@H]4O[C@@H]4O[C@H](CO)[C@@H](O)[C@H](O)[C@H]4O)[C@@H]2CC[C@]1(O[C@@H]1O[C@H](CO)[C@@H](O)[C@H](O[C@@H]2O[C@H](CO)[C@@H](O)[C@H](O)[C@H]2O)[C@H]1O[C@@H]1O[C@H](CO)[C@@H](O)[C@H](O)[C@H]1O)C3 [RebD, Rebaudioside D]?
**A.** Bitterness [1, 7]: 0; Bitterness [1, 8]: 0; Bitterness [1, 9]: 0; Bitterness [1, 6]: 0; SEV [2, 7]: 8.5; SEV [2, 8]: 8.5; SEV [2, 9]: 8.5; SEV [2, 6]: 8

**Q.** Which results are given for C=C1C[C@@]23CC[C@H]4[C@@](C)(CCC[C@@]4(C)C(=O)O[C@@H]4O[C@H](CO)[C@@H](O)[C@H](O[C@@H]5O[C@H](CO)[C@@H](O)[C@H](O)[C@H]5O)[C@H]4O[C@@H]4O[C@H](CO)[C@@H](O)[C@H](O)[C@H]4O)[C@@H]2CC[C@]1(O[C@@H]1O[C@H](CO)[C@@H](O)[C@H](O[C@@H]2O[C@H](CO)[C@@H](O)[C@H](O)[C@H]2O)[C@H]1O[C@@H]1O[C@H](CO)[C@@H](O)[C@H](O)[C@H]1O)C3 [RebM, Rebaudioside M]?
**A.** Bitterness [1, 10]: 0; Bitterness [1, 11]: 0; Bitterness [1, 12]: 0; Bitterness [1, 13]: 0; Bitterness ([1]; RebM 700 ppm, about 200 ppm sensory modifier and above): not perceptible; Sweetness linger ([1]; Table 16: RebM 700 ppm + yerba mate mono/dicaffeoylquinic acids 236 ppm): 0; Sweetness linger ([1]; Table 16: RebM 700 ppm + yerba mate mono/dicaffeoylquinic acids 300 ppm): 0; Sweetness linger ([1]; Table 16: RebM 700 ppm + yerba mate mono/dicaffeoylquinic acids 400 ppm): 0; Sweetness linger ([1]; Table 16: RebM 700 ppm + yerba mate mono/dicaffeoylquinic acids 472 ppm): 0; Sweetness linger ([1]; Table 16: RebM 700 ppm + yerba mate mono/dicaffeoylquinic acids 500 ppm): 0; Sweetness linger ([1]; Table 16: RebM 700 ppm + yerba mate mono/dicaffeoylquinic acids 600 ppm): 0; Sweetness linger ([1]; Table 16: RebM 700 ppm + yerba mate mono/dicaffeoylquinic acids 700 ppm): 0; Sweetness linger ([1]; Table 16: RebM 700 ppm + yerba mate mono/dicaffeoylquinic acids 708 ppm): 0; Sweetness linger ([1]; Table 16: RebM 700 ppm + yerba mate mono/dicaffeoylquinic acids 800 ppm): 0; Sweetness linger ([1]; Table 16: RebM 700 ppm, sensory modifier 0 ppm): 5; Bitterness ([1]; quinic, tartaric or 3-(3,4-dihydroxyphenyl)lactic acid backbone modifier above 200 ppm): none; Bitterness [1, 14]: 0; Bitterness [1, 15]: 0; Bitterness [1, 16]: 0; Bitterness [1, 6]: 5; sweetness intensity plateau (SEV) ([2]; listed as Reb M): about 11; sweetness intensity plateau (SEV) ([2]; listed as rebaudioside M): ~11; SEV ([2]; RebM 100 ppm + yerba mate mono/dicaffeoylquinic acids 100 ppm (1:1)): 3.5; SEV ([2]; RebM 100 ppm, no sensory modifier): 3.25; SEV ([2]; RebM 200 ppm + yerba mate mono/dicaffeoylquinic acids 200 ppm (1:1)): 6; SEV ([2]; RebM 200 ppm, no sensory modifier): 4.5; SEV ([2]; RebM 300 ppm + yerba mate mono/dicaffeoylquinic acids 300 ppm (1:1)): 7.5; SEV ([2]; RebM 300 ppm, no sensory modifier): 5.75; SEV ([2]; RebM 400 ppm + yerba mate mono/dicaffeoylquinic acids 400 ppm (1:1)): 8.5; SEV ([2]; RebM 400 ppm, no sensory modifier): 7.75; SEV ([2]; RebM 500 ppm + yerba mate mono/dicaffeoylquinic acids 500 ppm (1:1)): 9.25; SEV ([2]; RebM 500 ppm, no sensory modifier): 9; SEV ([2]; RebM 600 ppm + yerba mate mono/dicaffeoylquinic acids 600 ppm (1:1)): 10; SEV ([2]; RebM 600 ppm, no sensory modifier): 9.5; SEV ([2]; RebM 700 ppm + cichoric acid (tartaric backbone) 514 ppm): 10; SEV [2, 10]: 9; SEV [2, 11]: 10; SEV [2, 12]: 10.5; SEV [2, 13]: 10.25; SEV ([2]; RebM 700 ppm + rosmarinic acid 586 ppm): 10.25; SEV ([2]; RebM 700 ppm + yerba mate mono/dicaffeoylquinic acids 700 ppm (1:1)): 10.5; SEV ([2]; RebM 700 ppm, no sensory modifier): 10.5; SEV ([2]; RebM 800 ppm + yerba mate mono/dicaffeoylquinic acids 800 ppm (1:1)): 10.5; SEV ([2]; RebM 800 ppm, no sensory modifier): 10.75; SEV ([2]; RebM 900 ppm + yerba mate mono/dicaffeoylquinic acids 900 ppm (1:1)): 11; SEV ([2]; RebM 900 ppm, no sensory modifier): 11; SEV ([2]; RebM 1000 ppm + yerba mate mono/dicaffeoylquinic acids 1000 ppm (1:1)): 11.5; SEV ([2]; RebM 1000 ppm, no sensory modifier): 11; SEV ([2]; RebM 1100 ppm + yerba mate mono/dicaffeoylquinic acids 1100 ppm (1:1)): 12; SEV ([2]; RebM 1100 ppm, no sensory modifier): 11; SEV ([2]; RebM 1200 ppm + yerba mate mono/dicaffeoylquinic acids 1200 ppm (1:1)): 12.25; SEV ([2]; RebM 1200 ppm, no sensory modifier): 11; SEV ([2]; RebM 1300 ppm + yerba mate mono/dicaffeoylquinic acids 1300 ppm (1:1)): 12.5; SEV ([2]; RebM 1400 ppm + yerba mate mono/dicaffeoylquinic acids 1400 ppm (1:1)): 13; SEV ([2]; RebM 1500 ppm + yerba mate mono/dicaffeoylquinic acids 1500 ppm (1:1)): 13; SEV ([2]; RebM 1600 ppm + yerba mate mono/dicaffeoylquinic acids 1600 ppm (1:1)): 13; sweetness intensity (SEV) ([2]; listed as Reb M): about 13; sweetness intensity (SEV) ([2]; listed as rebaudioside M): ~13; SEV [2, 14]: 10 and 10.5; SEV ([2]; steviol glycoside 700 ppm + yerba mate mono/dicaffeoylquinic acids 300 ppm): 10.25; SEV ([2]; steviol glycoside 700 ppm + yerba mate mono/dicaffeoylquinic acids 400 ppm): 10.25; SEV [2, 15]: 10; SEV ([2]; steviol glycoside 700 ppm + yerba mate mono/dicaffeoylquinic acids 500 ppm): 10.00; SEV ([2]; steviol glycoside 700 ppm + yerba mate mono/dicaffeoylquinic acids 600 ppm): 10.5; SEV ([2]; steviol glycoside 700 ppm + yerba mate mono/dicaffeoylquinic acids 700 ppm): 10.5 and 10; SEV [2, 16]: 10; SEV ([2]; steviol glycoside 700 ppm + yerba mate mono/dicaffeoylquinic acids 800 ppm): 10.5; SEV [2, 6]: 10.5
